Counter-ions that a name gives are not always drawn.
Experiments:
iNOS = test: % inhibition of iNOS at 100 μM; assay type: biochemical
Method: (§1) Citrulline Assay for Nitric Oxide Synthase Nitric oxide synthase activity was measured by monitoring the conversion of L-[2,3-3H]-arginine to L-[2,3-3H]-citrulline (1,2). Human inducible NOS (hiNOS), human endothelial constitutive NOS (hecNOS) and human neuronal constitutive NOS (hncNOS) were each cloned from RNA extracted from human tissue. The recombinant enzymes were expressed in insect cells using a baculovirus vector. Enzyme activity was isolated from cell extracts and partially purified by DEAE-Sepharose chromatography (2). Mouse inducible NOS (miNOS) was prepared from an extract of LPS-treated mouse RAW 264.7 cells and rat brain constitutive NOS (rcNOS) was prepared from an extract of rat cerebellum. Both preparations were partially purified by DEAE-Sepharose chromatography (2). Enzyme and inhibitors were added to give a volume of 50 μL in 50 mM Tris (pH 7.6) and the reaction initiated by the addition of 50 μL of a solution containing 50 mM Tris (pH 7.6), 2.0 mg/mL bovine serum albumin, 2.0 mM DTT, 4.0 mM CaCl2, 20 μM FAD, 100 μM tetrahydrobiopterin, 0.4-2.0 mM NADPH and 60 μM L-arginine containing 0.9 μCi of L-[2,3-3H]-arginine. For constitutive NOS, calmodulin was included at a final concentration of 40-100 nM. Following incubation at 37° C. for 15 minutes, the reaction was terminated by addition of 300 μL cold buffer containing 10 mM EGTA, 100 mM HEPES (pH5.5) and 1.0 mM L-citrulline. The [3H]-citrulline was separated by chromatography on Dowex 50W X-8 cation exchange resin and radioactivity quantified with a liquid scintillation counter.

[1] = molecular target: T1, Human inducible NOS (hiNOS) (Homo sapiens, UniProt P35228); test: Citrulline Assay for Nitric Oxide Synthase, hiNOS; assay type: biochemical
T1 construct: made in house; host or cells: insect cells, baculovirus vector
Method: (§2) Citrulline Assay for Nitric Oxide Synthase
as §1, with “Nitric” for “Citrulline Assay for Nitric Oxide Synthase Nitric”

[2] = molecular target: T2, human neuronal constitutive NOS (hncNOS) (Homo sapiens, UniProt P29475); test: Citrulline Assay for Nitric Oxide Synthase, hncNOS; assay type: biochemical
T2 construct: made in house; host or cells: insect cells, baculovirus vector
Method: as §2
as §1, with “Nitric” for “Citrulline Assay for Nitric Oxide Synthase Nitric”

RAW cell i-NOS = molecular target: T3, RAW cell i-NOS (Mus musculus, UniProt P29477); test: Raw Cell Nitrite Assay; assay type: cell-based; settings: RAW 264.7 cells, LPS induced, L-arginine 30 μM
T3 construct: grown overnight (17 h) in the presence of LPS to induce NOS; endogenous in cells; host or cells: RAW 264.7 cells, LPS-induced
Method: RAW 264.7 cells are plated to confluency on a 96-well tissue culture plate grown overnight (17 h) in the presence of LPS to induce NOS. A row of 3-6 wells are left untreated and served as controls for subtraction of nonspecific background. The media is removed from each well and the cells are washed twice with Krebs-Ringers-Hepes (25 mM, pH 7.4) with 2 mg/ml glucose. The cells are then placed on ice and incubated with 50 μL of buffer containing L-arginine (30 μM) +/-inhibitors for 1 h. The assay is initiated by warming the plate to 37° C. in a water bath for 1 h. Production of nitrite by intracellular iNOS is linear with time. To terminate the cellular assay, the plate of cells is placed on ice and the nitrite-containing buffer removed and analyzed for nitrite using a previously published fluorescent determination for nitrite. All values are the average of triplicate wells and are compared to a background-subtracted induced set of cells (100% value).

[3] = molecular target: T4, human endothelial constitutive NOS (hecNOS) (Homo sapiens, UniProt P29474); test: Citrulline Assay for Nitric Oxide Synthase, hecNOS; assay type: biochemical
T4 construct: made in house; host or cells: insect cells, baculovirus vector
Method: as §2
as §1, with “Nitric” for “Citrulline Assay for Nitric Oxide Synthase Nitric”

[4] = tested on: constitutive and the inducible NO synthase; settings: constitutive vs inducible NO synthase; cited from earlier work

## CC(=N)NCCCC[C@H](N)C(O)CO (single isomer, unassigned) [Example 3A, N-(5S-amino-6,7-dihydroxyheptyl)ethanimidamide, dihydrochloride]
iNOS
  % inhibiton iNOS at 100 μM: 53.4%

## CC(=N)NCCCC[C@H](N)C(O)CO (single isomer, unassigned) [Example 3B, N-(5S-amino-6,7-dihydroxyheptyl)ethanimidamide, dihydrochloride]
[1]
  IC50: 12.3 µM
[2]
  IC50: 150 µM
RAW cell i-NOS
  IC50: 80 µM

## CC(=N)NCCCC[C@H](N)C(O)c1ccccc1 (single isomer, unassigned) [Example 11A, α-[1-amino-5-[(1-iminoethyl)amino]pentyl]benzenemethanol hydrochloride dihydrate]
iNOS
  % inhibiton iNOS at 100 μM (symbol): * (At 100 μM dose, response was not seen.)

## CC(=N)NCCCC[C@H](N)C(O)c1ccccc1 (single isomer, unassigned) [Example 11B, α-[1-amino-5-[(1-iminoethyl)amino]pentyl]benzenemethanol hydrochloride dihydrate]
iNOS
  % inhibiton iNOS at 100 μM: 4.6%

## CC(=N)NCCCC[C@H](N)C(C)(O)CO (single isomer, unassigned) [Example 15A, N-(5S-amino-6,7-dihydroxy-6-methylheptyl)ethanimidamide, hydrochloride dihydrate]
[1]
  IC50: 9.3 µM
[3]
  IC50: 2350 µM
[2]
  IC50: 99.6 µM
RAW cell i-NOS
  IC50: 57.3 µM

## CC(=N)NCCCC[C@H](N)C(C)(O)CO (single isomer, unassigned) [Example 15B, N-(5S-amino-6,7-dihydroxy-6-methylheptyl)ethanimidamide, hydrochloride dihydrate]
[1]
  IC50: 187 µM
[3]
  IC50: 6590 µM
[2]
  IC50: 441 µM

## CC(=N)NCCCC[C@H](N)C(O)C(C)O (single isomer, unassigned) [Example 16B, N-(5S-amino-6,7-dihydroxyoctyl) ethanimidamide, dihydrochloride hydrate]
[1]
  IC50: 76.8 µM
[3]
  IC50: 5430 µM
[2]
  IC50: 670 µM
RAW cell i-NOS
  IC50: > 100 µM

## CC(=N)NCCCC[C@H](N)C(C)O (single isomer, unassigned) [Example 40A, N-(5S-amino-6-hydroxyheptyl)ethanimidamide, dihydrochloride dihydrate]
iNOS
  % inhibiton iNOS at 100 μM: 32.6%

## CC(=N)NCCCC[C@H](N)CC(=O)O [Example 1, 3S-amino-7-[(1-iminoethyl)amino]heptanoic Acid]
[1]
  IC50: 61 µM
[3]
  IC50: 1990 µM
[2]
  IC50: 898 µM
RAW cell i-NOS
  IC50: 300 µM

## CCOC(=O)C[C@@H](N)CCCCNC(C)=N [Example 1d, Ethyl 3S-amino-7-[(1-iminoethyl)amino]heptanoate]
iNOS
  % inhibiton iNOS at 100 μM: 35%

## CC(=N)NCCC[C@H](N)CC(=O)O [Example 2, 3S-amino-6-[(1-iminoethyl)amino]hexanoic Acid]
iNOS
  % inhibiton iNOS at 100 μM (symbol): * (At 100 μM dose, response was not seen.)

## CCOC(=O)C[C@@H](N)CCCNC(C)=N [Example 2d]
iNOS
  % inhibiton iNOS at 100 μM: 5%

## CC(=N)NCCCC(C)N (stereo not drawn) [Example 4, Ni-(1-iminoethyl)-1,4-pentanediamine, dihydrochloride]
iNOS
  % inhibiton iNOS at 100 μM: 33%

## CCC(N)CCCCNC(C)=N (stereo not drawn) [Example 5, N1-(1-iminoethyl) -1,5-heptanediamine]
iNOS
  % inhibiton iNOS at 100 μM: 27%

## CC(=N)Nc1ccc(C(N)CC(=O)O)cc1.Cl.Cl.O (stereo not drawn) [Example 10, β-amino-4-[(1-iminoethyl)amino]benzenepropanoic acid, dihydrochloride hydrate]
iNOS
  % inhibiton iNOS at 100 μM: 3.4%

## COC(=O)CC(N)c1ccc(NC(C)=N)cc1 (stereo not drawn) [Example 10f]
iNOS
  % inhibiton iNOS at 100 μM: 7.7%

## CC(=N)NCCCC[C@H](N)C(=O)c1cccs1 [Example 12, N-[5S-amino-6-oxo-6-(2-thienyl)hexyl]ethanimidamide, hydrate]
iNOS
  % inhibiton iNOS at 100 μM (symbol): * (At 100 μM dose, response was not seen.)

## CC(=N)NCCCC[C@H](N)C(C)=O [Example 14, N-(5S-amino-6-oxoheptyl)ethanimidamide, dihydrochloride]
iNOS
  % inhibiton iNOS at 100 μM (symbol): * (At 100 μM dose, response was not seen.)

## CC(=N)NCCCC[C@H](N)C(COC(C)=O)OC(C)=O (stereo partly drawn) [Example 18, N-(6,7-diacetyloxy-5S-aminoheptyl)ethanimidamide, hydrochloride monohydrate]
iNOS
  % inhibiton iNOS at 100 μM: 7%

## CC(=N)NCCCC[C@H](N)C(O)COC(C)=O (stereo partly drawn) [Example 19, N-(5S-amino-6-hydroxy-7-acetoxyheptyl)ethanimidamide, hydrochloride monohydrate]
iNOS
  % inhibiton iNOS at 100 μM: 54%

## CC(=N)NCCCC[C@H](N)C(C)O (stereo partly drawn) [Example 40B, N-(5S-amino-6-hydroxyheptyl)ethanimidamide, dihydrochloride dihydrate]
iNOS
  % inhibiton iNOS at 100 μM: 14.5%

## CC(=N)NCCCC[C@H](N)c1nnn[nH]1 [Example 41, N-[5S-amino-5-(1H-tetrazol-5-yl)pentyl]ethanimidamide, dihydrochloride]
iNOS
  % inhibiton iNOS at 100 μM: 28.5%

## CC(=N)NCCCC[C@H](N)CO [Example 48, N-(5S-amino-6-hydroxyhexyl)ethanimidamide]
iNOS
  % inhibiton iNOS at 100 μM: 40.6%

## CC(=N)NCCCC[C@H](N)c1ncc(C)o1 [Example 49, N-[5-amino-5-(5-methyloxazol-2-yl)pentyl]ethanimidamide, hydrochloride hydrate]
iNOS
  % inhibiton iNOS at 100 μM: 19.4%

## CC(=N)NCCCC[C@H](N)C(=O)NO [Example 50, 2S-amino-N-hydroxy-6-[(1-iminoethyl)amino]hexanamide, hydrochloride]
iNOS
  % inhibiton iNOS at 100 μM: 40.6%

## CNC(=N)NCCC[C@H](N)C(=O)O [L-NMMA, L-N-monomethyl-arginine]
[4]
  selectivity as NO synthase inhibitor: non-selective

From patent US6143790A, “L-N^6 -(1-iminoethyl)lysine derivatives useful as nitric oxide synthase inhibitors” (G.D. Searle & Co., priority 1996, dated 2000)
